{"source": "ChEMBL document CHEMBL5150044", "about": "“Macrocyclization of Quinazoline-Based EGFR Inhibitors Leads to Exclusive Mutant Selectivity for EGFR L858R and Del19” (J Med Chem, 2022)", "key": {"[1]": {"molecular_target": "T1, Mitogen-activated protein kinase 1 and 3 (ERK2 and ERK1) (Mus musculus) (UniProt P63085+Q63844)", "T1 sequence (P63085 whole entry, looked up)": "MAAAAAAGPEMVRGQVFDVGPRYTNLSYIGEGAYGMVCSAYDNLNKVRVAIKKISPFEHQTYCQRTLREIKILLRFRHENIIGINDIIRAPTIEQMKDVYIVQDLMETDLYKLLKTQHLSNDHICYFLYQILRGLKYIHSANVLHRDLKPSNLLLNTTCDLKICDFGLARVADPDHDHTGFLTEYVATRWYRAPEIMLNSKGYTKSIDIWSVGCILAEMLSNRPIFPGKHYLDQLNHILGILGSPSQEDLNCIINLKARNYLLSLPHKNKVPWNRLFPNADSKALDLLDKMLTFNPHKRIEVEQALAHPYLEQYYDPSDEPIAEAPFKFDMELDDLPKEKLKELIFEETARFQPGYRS", "T1 sequence (Q63844 whole entry, looked up)": "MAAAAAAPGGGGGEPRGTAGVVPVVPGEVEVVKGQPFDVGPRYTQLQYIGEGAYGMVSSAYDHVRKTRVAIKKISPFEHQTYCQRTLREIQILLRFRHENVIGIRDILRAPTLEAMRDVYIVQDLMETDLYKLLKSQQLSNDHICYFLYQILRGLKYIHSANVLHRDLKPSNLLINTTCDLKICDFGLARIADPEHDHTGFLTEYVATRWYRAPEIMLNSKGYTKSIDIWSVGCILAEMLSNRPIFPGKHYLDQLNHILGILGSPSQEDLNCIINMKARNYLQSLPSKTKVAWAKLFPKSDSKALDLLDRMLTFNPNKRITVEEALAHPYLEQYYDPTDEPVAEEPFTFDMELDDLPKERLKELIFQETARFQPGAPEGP", "assay": "Inhibition of ERK1/2 phosphorylation in mouse BaF3 cells harboring Del19 mutant assessed as ERK1/2 phosphorylation at 10 to 1000 nM incubated for 8 hrs by Western blot analysis", "type": "cell-based", "conditions": "dose 10-1000 nM"}, "[2]": {"molecular_target": "RAC-alpha serine/threonine-protein kinase (Mus musculus) (UniProt P31750)", "sequence (P31750 whole entry)": "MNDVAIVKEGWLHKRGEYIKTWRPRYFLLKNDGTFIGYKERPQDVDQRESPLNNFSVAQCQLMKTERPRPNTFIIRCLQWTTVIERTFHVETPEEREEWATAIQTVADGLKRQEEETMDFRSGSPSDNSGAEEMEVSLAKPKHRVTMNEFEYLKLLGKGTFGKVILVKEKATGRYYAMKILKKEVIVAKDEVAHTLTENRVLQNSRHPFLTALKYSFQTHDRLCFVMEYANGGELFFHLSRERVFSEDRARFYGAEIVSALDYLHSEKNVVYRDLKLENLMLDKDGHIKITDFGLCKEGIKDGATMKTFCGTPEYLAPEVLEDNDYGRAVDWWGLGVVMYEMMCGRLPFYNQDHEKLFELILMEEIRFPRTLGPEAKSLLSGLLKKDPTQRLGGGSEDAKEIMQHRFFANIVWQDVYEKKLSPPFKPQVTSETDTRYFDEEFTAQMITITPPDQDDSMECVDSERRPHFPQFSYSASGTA", "type": "cell-based", "conditions": "BaF3, dose 10-1000 nM, time 8.0 hrs"}, "[3]": {"molecular_target": "RAC-alpha serine/threonine-protein kinase (Mus musculus) (UniProt P31750)", "assay": "Inhibition of AKT phosphorylation in mouse BaF3 cells harboring Del19 mutant assessed as […] phosphorylation at 10 to 1000 nM incubated for 8 hrs by Western blot analysis", "type": "cell-based", "conditions": "dose 10-1000 nM"}, "[4]": {"molecular_target": "Epidermal growth factor receptor (Homo sapiens, UniProt P00533, EX19DEL)", "sequence (P00533 whole entry, looked up, stated change not applied)": "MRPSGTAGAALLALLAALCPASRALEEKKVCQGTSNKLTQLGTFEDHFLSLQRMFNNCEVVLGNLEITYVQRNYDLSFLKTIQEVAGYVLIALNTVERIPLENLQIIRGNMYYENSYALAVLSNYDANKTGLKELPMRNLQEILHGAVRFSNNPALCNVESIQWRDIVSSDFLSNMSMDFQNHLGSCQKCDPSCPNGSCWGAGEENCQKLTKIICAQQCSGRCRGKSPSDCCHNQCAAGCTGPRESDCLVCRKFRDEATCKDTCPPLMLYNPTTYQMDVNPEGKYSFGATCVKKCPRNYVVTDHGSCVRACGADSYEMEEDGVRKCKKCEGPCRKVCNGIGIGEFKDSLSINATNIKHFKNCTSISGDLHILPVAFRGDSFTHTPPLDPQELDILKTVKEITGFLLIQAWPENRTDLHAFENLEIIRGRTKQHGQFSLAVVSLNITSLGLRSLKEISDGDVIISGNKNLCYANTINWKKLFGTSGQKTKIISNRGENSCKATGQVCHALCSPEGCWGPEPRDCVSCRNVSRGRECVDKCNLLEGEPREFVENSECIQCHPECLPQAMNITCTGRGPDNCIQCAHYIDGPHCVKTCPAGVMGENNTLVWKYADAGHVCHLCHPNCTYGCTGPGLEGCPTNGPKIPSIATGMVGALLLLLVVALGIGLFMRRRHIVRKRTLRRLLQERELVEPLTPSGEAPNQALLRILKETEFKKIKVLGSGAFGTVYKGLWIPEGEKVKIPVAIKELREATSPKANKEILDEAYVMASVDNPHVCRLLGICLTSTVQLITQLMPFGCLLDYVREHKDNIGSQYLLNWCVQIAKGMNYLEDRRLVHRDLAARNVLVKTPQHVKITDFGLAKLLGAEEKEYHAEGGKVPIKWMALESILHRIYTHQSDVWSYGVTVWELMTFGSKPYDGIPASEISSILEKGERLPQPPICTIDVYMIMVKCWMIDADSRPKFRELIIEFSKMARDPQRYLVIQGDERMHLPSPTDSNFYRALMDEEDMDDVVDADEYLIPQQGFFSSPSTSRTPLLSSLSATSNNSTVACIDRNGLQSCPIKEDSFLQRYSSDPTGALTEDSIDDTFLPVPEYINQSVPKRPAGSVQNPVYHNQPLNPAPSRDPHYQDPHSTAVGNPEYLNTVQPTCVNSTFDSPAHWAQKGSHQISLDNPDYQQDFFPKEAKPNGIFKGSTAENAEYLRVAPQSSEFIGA"}, "[5]": {"tested_on": "Epidermal growth factor receptor (Homo sapiens), P04626+P00533+Q15303+P21860 [L858R]", "conditions": "Mus musculus; BaF3; dose 10-1000 nM, time 8.0 hrs"}, "BaF3 [6]": {"tested_on": "BaF3", "assay": "cells", "conditions": "Mus musculus, BaF3, 72 h", "description": "Antiproliferative activity against mouse BaF3 cells expressing EGFR WT assessed as cell viability measured after 72 hrs hrs by CellTiter Glo assay"}, "BaF3 [7]": {"tested_on": "BaF3", "assay": "cells", "conditions": "Mus musculus, BaF3, 72 h", "remark": "listed apart in the source"}, "[8]": {"molecular_target": "Dual specificity tyrosine-phosphorylation-regulated kinase 1A (Homo sapiens) (UniProt Q13627)", "assay": "Binding affinity to recombinant DYRK1 (unknown origin) assessed as change in melting temperature 10 uM by differential scanning fluorimetry"}, "[9]": {"molecular_target": "Epidermal growth factor receptor (Homo sapiens, UniProt P00533)", "sequence (P00533 whole entry)": "as the sequence (P00533 whole entry, looked up, stated change not applied) above"}, "[10]": {"molecular_target": "Epidermal growth factor receptor (Homo sapiens, UniProt P00533, L858R)"}, "[11]": {"molecular_target": "T2, Dual specificity tyrosine-phosphorylation-regulated kinase 2 (Homo sapiens) (UniProt Q92630)", "T2 sequence (whole entry)": "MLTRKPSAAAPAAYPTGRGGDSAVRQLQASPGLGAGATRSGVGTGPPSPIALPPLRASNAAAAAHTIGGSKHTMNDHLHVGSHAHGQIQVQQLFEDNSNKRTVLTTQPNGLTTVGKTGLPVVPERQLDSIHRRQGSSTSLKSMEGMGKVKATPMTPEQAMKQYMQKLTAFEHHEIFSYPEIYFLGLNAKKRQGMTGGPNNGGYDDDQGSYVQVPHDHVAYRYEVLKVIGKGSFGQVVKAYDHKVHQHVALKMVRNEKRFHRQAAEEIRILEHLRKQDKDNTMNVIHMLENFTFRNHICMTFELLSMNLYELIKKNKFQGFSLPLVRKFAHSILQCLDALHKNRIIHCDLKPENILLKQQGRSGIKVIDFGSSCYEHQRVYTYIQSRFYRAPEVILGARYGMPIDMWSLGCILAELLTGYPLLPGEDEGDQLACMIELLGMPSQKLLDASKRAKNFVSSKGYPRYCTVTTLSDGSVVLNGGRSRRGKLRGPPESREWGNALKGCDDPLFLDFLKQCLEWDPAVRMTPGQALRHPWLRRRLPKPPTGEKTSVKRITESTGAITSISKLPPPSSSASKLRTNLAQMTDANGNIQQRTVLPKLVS", "assay": "Binding affinity to recombinant DYRK2 (unknown origin) assessed as change in melting temperature 10 uM by differential scanning fluorimetry"}, "[12]": {"molecular_target": "RAC-alpha serine/threonine-protein kinase (Mus musculus) (UniProt P31750)", "assay": "Inhibition of AKT phosphorylation in mouse BaF3 cells harboring L858R mutant assessed as […] phosphorylation at 10 to 1000 nM incubated for 8 hrs by Western blot analysis", "type": "cell-based", "conditions": "dose 10-1000 nM"}, "[13]": {"molecular_target": "RAC-alpha serine/threonine-protein kinase (Mus musculus) (UniProt P31750)", "type": "cell-based", "conditions": "BaF3, dose 10-1000 nM, time 8.0 hrs", "remark": "listed apart in the source"}, "[14]": {"molecular_target": "T1, Mitogen-activated protein kinase 1 and 3 (ERK2 and ERK1) (Mus musculus)", "type": "cell-based", "conditions": "BaF3, dose 10-1000 nM, time 8.0 hrs"}, "BaF3 [15]": {"tested_on": "BaF3", "assay": "cells", "type": "functional, cell-based", "conditions": "Mus musculus, BaF3, 72 h", "description": "Antiproliferative activity against mouse BaF3 cells expressing Del19 assessed as cell viability measured after 72 hrs hrs by CellTiter Glo assay"}, "[16]": {"molecular_target": "BMP-2-inducible protein kinase (Homo sapiens) (UniProt Q9NSY1)", "sequence (Q9NSY1 whole entry, looked up)": "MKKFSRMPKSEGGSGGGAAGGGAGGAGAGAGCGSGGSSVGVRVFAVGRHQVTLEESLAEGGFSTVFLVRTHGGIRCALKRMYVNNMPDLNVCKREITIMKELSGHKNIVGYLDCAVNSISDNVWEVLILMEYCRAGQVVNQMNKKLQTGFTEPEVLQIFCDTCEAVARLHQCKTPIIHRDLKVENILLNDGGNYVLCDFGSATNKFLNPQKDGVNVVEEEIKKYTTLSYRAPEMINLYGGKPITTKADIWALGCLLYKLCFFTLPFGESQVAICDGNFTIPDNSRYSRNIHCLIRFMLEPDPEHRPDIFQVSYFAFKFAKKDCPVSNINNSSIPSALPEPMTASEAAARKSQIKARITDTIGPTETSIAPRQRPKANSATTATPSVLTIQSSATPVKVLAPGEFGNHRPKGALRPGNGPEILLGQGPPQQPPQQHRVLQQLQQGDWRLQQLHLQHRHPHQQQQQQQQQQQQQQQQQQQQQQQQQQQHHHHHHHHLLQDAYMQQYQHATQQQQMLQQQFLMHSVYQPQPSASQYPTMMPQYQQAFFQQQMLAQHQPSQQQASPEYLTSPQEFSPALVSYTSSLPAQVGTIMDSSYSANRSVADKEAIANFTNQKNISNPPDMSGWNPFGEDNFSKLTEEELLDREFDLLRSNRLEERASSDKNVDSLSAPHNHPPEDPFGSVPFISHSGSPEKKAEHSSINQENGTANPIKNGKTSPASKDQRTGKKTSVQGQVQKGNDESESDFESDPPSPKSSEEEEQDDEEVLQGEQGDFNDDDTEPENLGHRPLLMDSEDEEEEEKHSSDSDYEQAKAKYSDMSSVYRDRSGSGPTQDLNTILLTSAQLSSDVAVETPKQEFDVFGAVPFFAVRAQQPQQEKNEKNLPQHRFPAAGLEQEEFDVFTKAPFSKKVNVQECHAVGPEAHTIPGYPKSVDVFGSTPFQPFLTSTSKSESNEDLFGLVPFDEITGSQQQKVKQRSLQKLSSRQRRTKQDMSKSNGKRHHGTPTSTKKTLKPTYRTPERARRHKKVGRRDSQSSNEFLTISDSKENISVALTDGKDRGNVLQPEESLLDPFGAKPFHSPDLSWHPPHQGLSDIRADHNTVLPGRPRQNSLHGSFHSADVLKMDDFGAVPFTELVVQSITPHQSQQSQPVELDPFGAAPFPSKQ", "assay": "Binding affinity to recombinant BMP2K (unknown origin) assessed as change in melting temperature 10 uM by differential scanning fluorimetry"}}, "note": "The source made the active and inactive calls. The calls are words filed in the database; no cut-off is given here.", "data": [{"molecule": "COc1cc2ncnc(Nc3cc(Cl)c(F)cc3O)c2cc1O", "values": [{"measurement": "inhibition", "setting": "[1]", "value": "Active"}, {"measurement": "inhibition", "setting": "[2]", "value": "Active"}, {"measurement": "inhibition", "setting": "[3]", "value": "Active"}, {"measurement": "IC50", "setting": "[4]", "value": 11.5, "unit": "nM"}, {"measurement": "inhibition", "setting": "[5]", "value": "Active"}, {"measurement": "IC50", "setting": "BaF3 [6]", "value": 206, "unit": "nM"}, {"measurement": "IC50", "setting": "BaF3 [7]", "value": 93.1, "unit": "nM"}, {"measurement": "ΔTm", "setting": "[8]", "value": "> 3", "unit": "°C"}, {"measurement": "IC50", "setting": "[9]", "value": 1800, "unit": "nM"}, {"measurement": "IC50", "setting": "[10]", "value": 18.8, "unit": "nM"}, {"measurement": "ΔTm", "setting": "[11]", "value": "> 3", "unit": "°C"}, {"measurement": "inhibition", "setting": "[12]", "value": "Active"}, {"measurement": "inhibition", "setting": "[13]", "value": "Active"}, {"measurement": "inhibition", "setting": "[14]", "value": "Active"}, {"measurement": "IC50", "setting": "BaF3 [15]", "value": 121, "unit": "nM"}, {"measurement": "ΔTm", "setting": "[16]", "value": "> 3", "unit": "°C"}]}]}
